Data reported in paper PMC4322620 (Frontiers in Pharmacology, 2015).

How the values were obtained:
acute thermal pain = settings: mouse, in vivo, ip, 4 mg/kg
thermal pain = settings: mouse, in vivo, ip, 4 mg/kg

CC12CC3CC(C)(C1)CC(N)(C3)C2 [Memantine]
Tail flick latency (acute thermal pain): 4.836 ± 0.264 s
Hot plate (latency to hindlimb response) (thermal pain): 7.9 ± 0.49 s
